Assay results taken from the CheMixHub viscosity set.

Assay: xn = mol fraction of the nth substance listed

C=C1CCC2CC1C2(C)C (stereo not given) + Cc1ccccc1
viscosity [mPa·s], 101 kPa
Settings	x2 = 0.2689	x2 = 0.3867	x2 = 0.4951	x2 = 0.5953	x2 = 0.6881	x2 = 0.7744	x2 = 0.8547	x2 = 0.9298
303.15 K	1.188	0.995	0.86	0.754	0.684	0.633	0.595	0.564
308.5 K	1.112	0.93	0.803	0.703	0.642	0.595	0.565	0.536
313.15 K	1.027	0.863	0.745	0.654	0.598	0.56	0.534	0.505

Cc1cccc(N)c1 + Cc1ccccc1
303.15 K, 101.33 kPa
Settings	viscosity [mPa·s]
x1 = 0.168	0.61
x1 = 0.422	0.8
x1 = 0.619	1.05
x1 = 0.801	1.53

CCCC[N+](CCCC)(CCCC)CCCC.[Br-] + ClC(Cl)(Cl)Cl
303.15 K, 101 kPa
Settings	viscosity [mPa·s]
x1 = 0.0245	2.46
x1 = 0.026	2.59
x1 = 0.0348	3.22
x1 = 0.0608	7.11
x1 = 0.0946	14.33
x1 = 0.1162	24.57
x1 = 0.1446	36.49
x1 = 0.1666	56.17
x1 = 0.1764	63.7
x1 = 0.2004	101.7
x1 = 0.2171	141.8
x1 = 0.2631	307.1
x1 = 0.3449	1248

C1=Cc2cccc3cccc1c23 + ClC(Cl)Cl
viscosity [mPa·s], 101 kPa
Settings	298.15 K	303.15 K	308.15 K	313.15 K
x1 = 0.1595	0.892	0.8295	0.7764	0.7199
x1 = 0.2105	0.9695	0.907	0.8473	0.7968

CCCC[N+](CCCC)(CCCC)CCCC.[Br-] + NCCO
101 kPa, x1 = 0.143
Settings	viscosity [mPa·s]
298.15 K	53.49
303.15 K	40.7
308.15 K	31.66
313.15 K	25.12
318.15 K	20.28
323.15 K	16.63

NCCN1CCNCC1 + NCCO.O=CO
viscosity [mPa·s], 100 kPa
Settings	x2 = 0.2317	x2 = 0.3408	x2 = 0.4457	x2 = 0.5468	x2 = 0.6441	x2 = 0.7379	x2 = 0.8283
298.15 K	130.1	250.1	379.1	466.9	462.4	357.8	264.9
303.15 K	80.27	188.7	266.6	322.5	323.3	259	196.6
308.15 K	–	136.2	191.3	230.5	234.9	192	149.1
313.15 K	–	102.4	141.7	170	173.6	146.6	115.8
318.15 K	–	78.62	106.8	127.9	131.8	113.7	91.74
323.15 K	–	61.55	83.63	98.95	102.1	89.85	74.36

CC(=O)[O-].C[N+]1(CC2CO2)CCCC1=O (stereo not given) + O
viscosity [mPa·s], 101 kPa
Settings	293.15 K	298.15 K	303.15 K	308.15 K	313.15 K
x1 = 0.0346	2.26	1.94	1.67	1.46	1.29
x1 = 0.0775	4.27	3.56	3.01	2.6	2.28
x1 = 0.1028	5.4	4.45	3.71	3.13	2.67
x1 = 0.2008	7.75	6.28	5.18	4.33	3.63
x1 = 0.3054	8.32	6.76	5.57	4.67	3.95
x1 = 0.4045	8.17	6.7	5.56	4.69	4
x1 = 0.5113	7.82	6.47	5.41	4.6	3.94
x1 = 0.6049	7.47	6.23	5.23	4.47	3.85
x1 = 0.7052	7.16	6.01	5.1	4.38	3.79
x1 = 0.8048	6.92	5.83	4.97	4.28	3.72
x1 = 0.9047	6.73	5.68	4.87	4.21	3.67

CCCCO + O
Settings	viscosity [mPa·s]
293.15 K, 100 kPa, x1 = 0.02	1.378
293.15 K, 100 kPa, x1 = 0.5485	3.301
293.15 K, 101 kPa, x1 = 0.005	1.077
293.15 K, 101 kPa, x1 = 0.01	1.155
293.15 K, 101 kPa, x1 = 0.015	1.232
298.15 K, 101 kPa, x1 = 0.005	0.947
298.15 K, 101 kPa, x1 = 0.01	1.003
298.15 K, 101 kPa, x1 = 0.015	1.058
298.15 K, 101 kPa, x1 = 0.69	2.598
298.15 K, 101 kPa, x2 = 0.0398	2.622
298.15 K, 101 kPa, x2 = 0.0784	2.618
298.15 K, 101 kPa, x2 = 0.1202	2.619
298.15 K, 101 kPa, x2 = 0.1424	2.62
298.15 K, 101 kPa, x2 = 0.163	2.626
298.15 K, 101 kPa, x2 = 0.1955	2.634
298.15 K, 101 kPa, x2 = 0.2265	2.647
298.15 K, 101 kPa, x2 = 0.2719	2.679
298.15 K, 101.3 kPa, x1 = 0.003	0.9421
298.15 K, 101.3 kPa, x1 = 0.006	0.994
298.15 K, 101.3 kPa, x1 = 0.009	1.047
298.15 K, 101.3 kPa, x1 = 0.012	1.1
298.15 K, 101.33 kPa, x1 = 0.0017	0.921
298.15 K, 101.33 kPa, x1 = 0.00297	0.941
298.15 K, 101.33 kPa, x1 = 0.00364	0.949
298.15 K, 101.33 kPa, x1 = 0.00491	0.97
298.15 K, 101.33 kPa, x1 = 0.00559	0.981
298.15 K, 101.33 kPa, x1 = 0.0081	1.021
298.15 K, 101.33 kPa, x1 = 0.00972	1.048
298.15 K, 101.33 kPa, x1 = 0.0124	1.096
298.15 K, 101.33 kPa, x1 = 0.0136	1.114
298.15 K, 101.33 kPa, x1 = 0.0151	1.141
298.15 K, 101.33 kPa, x1 = 0.0166	1.166
298.15 K, 101.33 kPa, x1 = 0.0179	1.185
303.15 K, 101 kPa, x1 = 0.005	0.842
303.15 K, 101 kPa, x1 = 0.01	0.883
303.15 K, 101 kPa, x1 = 0.015	0.93
303.15 K, 101.33 kPa, x1 = 0.013	0.968
303.15 K, 101.33 kPa, x2 = 0.095	2.236
303.15 K, 101.33 kPa, x2 = 0.2526	2.272
303.15 K, 101.33 kPa, x2 = 0.4385	2.42
308.15 K, 101 kPa, x1 = 0.005	0.758
308.15 K, 101 kPa, x1 = 0.01	0.794
308.15 K, 101 kPa, x1 = 0.015	0.841
308.15 K, 101 kPa, x2 = 0.0398	2.032
308.15 K, 101 kPa, x2 = 0.0784	2.022
308.15 K, 101 kPa, x2 = 0.1202	2.017
308.15 K, 101 kPa, x2 = 0.1424	2.016
308.15 K, 101 kPa, x2 = 0.163	2.017
308.15 K, 101 kPa, x2 = 0.1955	2.024
308.15 K, 101 kPa, x2 = 0.2265	2.027
313.15 K, 101 kPa, x1 = 0.005	0.682
313.15 K, 101 kPa, x1 = 0.01	0.712
313.15 K, 101 kPa, x1 = 0.015	0.746
318.15 K, 101 kPa, x1 = 0.005	0.62
318.15 K, 101 kPa, x1 = 0.01	0.638
318.15 K, 101 kPa, x1 = 0.015	0.662
318.15 K, 101 kPa, x2 = 0.0412	1.597
318.15 K, 101 kPa, x2 = 0.0733	1.588
318.15 K, 101 kPa, x2 = 0.1101	1.581
318.15 K, 101 kPa, x2 = 0.1458	1.576
318.15 K, 101 kPa, x2 = 0.1755	1.571
318.15 K, 101 kPa, x2 = 0.2129	1.578
323.15 K, 100 kPa, x1 = 0.02	0.668
323.15 K, 100 kPa, x1 = 0.5485	1.447
323.15 K, 101 kPa, x1 = 0.005	0.566
323.15 K, 101 kPa, x1 = 0.01	0.58
323.15 K, 101 kPa, x1 = 0.015	0.602

CN1CCCN2CCCN=C12 + O
100 kPa
Settings	viscosity [mPa·s]
294.96 K, x1 = 0.5035	29.2
296.8 K, x1 = 0.1982	23.1
296.87 K, x1 = 0.1982	24.9
298.43 K, x1 = 0.5035	23.6
298.43 K, x1 = 0.798	11.2
303.69 K, x1 = 0.1982	15.8
308.29 K, x1 = 0.5035	14
308.31 K, x1 = 0.798	7.6
313.13 K, x1 = 0.1982	11.5
318.19 K, x1 = 0.798	5.6
